≈ marks a conversion by molar mass, not a printed value. Like-named read-outs stand apart in the source and are kept apart here. A value given as a limit tells only on which side of the number the result lay.

The values that follow come from patent publication US4868290A, “4'-Deoxy-3"-demethoxy-3"-methylenedesmycosin derivatives and synthetic intermediates thereof” (Toyo Jozo Kabushiki Kaisha, priority 1987, dated 1989).

Holding throughout (type): cell-based
Test [1] deals with Enterococcus faecalis 1501. Briefly: MIC, Enterococcus faecalis 1501. An excerpt:
(§1) The minimum inhibitory concentration (MIC) of compounds (1) according to the present invention is illustrated in Table 1.

The test system of another test is Staph. aureus MS353 AO. Briefly: MIC, Staph. aureus MS353 AO. The following applies: Staphylococcus aureus, MS353AO.
Description: as §1

A further test concerns Staph. aureus ATCC6538P. Briefly: MIC, Staph. aureus ATCC6538P. The following applies: Staphylococcus aureus.
Description: as §1

The next test deals with Staph. aureus MS353C36. Nature of the test: MIC, Staph. aureus MS353C36 (erythromycin resistant strain). The following applies: Staphylococcus aureus.
Description: as §1

The next test relates to Staph. aureus MS353. Briefly: MIC, Staph. aureus MS353. The following applies: Staphylococcus aureus.
Description: as §1

The subject of another test is Strept. pyogenes 1022. Nature of the test: MIC, Strept. pyogenes 1022. The following applies: Streptococcus pyogenes.
Description: as §1

For another test, the system named is Staph. aureus 0119. Nature of the test: MIC, Staph. aureus 0119. The following applies: Staphylococcus aureus.
Description: as §1

Test [2] deals with Coryne. diphtheriae P.W.8. Nature of the test: MIC, Coryne. diphtheriae P.W.8. The following applies: Corynebacterium diphtheriae.
Description: as §1

The next test has as its system Staph. aureus Smith. Briefly: MIC, Staph. aureus Smith. The following applies: Staphylococcus aureus.
Description: as §1

Test [3] concerns Bacillus subtilis ATCC6633. Briefly: MIC, Bacillus subtilis ATCC6633.
Description: as §1

The next test concerns Strept. pyogenes N.Y.5. Nature of the test: MIC, Strept. pyogenes N.Y.5. The following applies: Streptococcus pyogenes.
Description: as §1

The test system of the next test is E. coli NIHJ JC-2. Nature of the test: MIC, E. coli NIHJ JC-2. The following applies: Escherichia coli, NIHJJC2.
Description: as §1

Test [4] has as its system Micrococcus luteus ATCC9341. Nature of the test: MIC, Micrococcus luteus ATCC9341.
Description: as §1

A further test has as its system Staph. aureus 0126. Nature of the test: MIC, Staph. aureus 0126. The following applies: Staphylococcus aureus.
Description: as §1

Another test has as its system Strept. agalactiae 1020. Briefly: MIC, Strept. agalactiae 1020. The following applies: Streptococcus agalactiae.
Description: as §1

The test system of the next test is Staph. aureus 0127. Nature of the test: MIC, Staph. aureus 0127. The following applies: Staphylococcus aureus.
Description: as §1

Setting [5] is: Staph. aureus MS353, read-out: MIC.
[6] abbreviates: Staph. aureus Smith, read-out: MIC.
The mark [7] stands for this setting: Staph. aureus 0126, read-out: MIC.

As to `CCC1OC(=O)CC(O)C(C)C(OC2OC(C)C(O)C(N(C)C)C2O)C(CC=O)CC(C)C(=O)/C=C/C(C)=C/C1COC1OC(C)C(O)C(OC)C1OC` (stereo not shown) [Des, Desmycosin (4'-demycarosyltylosin), reference compound], the MIC is 0.78 µg/mL (≈ 1.01 µM) in [1]; 100 µg/mL (≈ 130 µM) in the test with Staph. aureus MS353 AO; 0.78 µg/mL (≈ 1.01 µM) in the test with Staph. aureus ATCC6538P; 1.56 µg/mL (≈ 2.02 µM) against Staph. aureus MS353C36; 1.56 µg/mL (≈ 2.02 µM) against Staph. aureus MS353 (MS353); greater than 100 µg/mL with Strept. pyogenes 1022. Also, the minimal inhibitory concentration (MIC) in the test with Staph. aureus 0119 was greater than 100 µg/mL; in test [2] it was 0.1 µg/mL (≈ 0.13 µM); against Staph. aureus Smith it was 1.56 µg/mL (≈ 2.02 µM); in test [3], 0.78 µg/mL (≈ 1.01 µM); with Strept. pyogenes N.Y.5, 0.1 µg/mL (≈ 0.13 µM); in the test on E. coli NIHJ JC-2, greater than 100 µg/mL. In addition, the MIC in [4] is 0.2 µg/mL (≈ 0.259 µM); against Staph. aureus 0126 (0126) it was 1.56 µg/mL (≈ 2.02 µM); in the test with Strept. agalactiae 1020, 0.2 µg/mL (≈ 0.259 µM); in the test on Staph. aureus 0127, greater than 100 µg/mL.
With `C=C1CC(C)OC(OCC2/C=C(C)/C=C/C(=O)C(C)CC(C)C(OC3OC(C)C(O)C(N(C)C)C3O)C(C)C(O)CC(=O)OC2CC)C1OC` (stereo not shown) [Compound 3, 4"-deoxy-3"-demethoxy-3"-methylene-19-deformyldesmycosin], the minimal inhibitory concentration (MIC) in [1] is 0.78 µg/mL (≈ 1.1 µM); against Staph. aureus MS353 AO it was greater than 100 µg/mL; in the test with Staph. aureus ATCC6538P it was 0.39 µg/mL (≈ 0.549 µM); against Staph. aureus MS353C36, 0.39 µg/mL (≈ 0.549 µM); in the test on Staph. aureus MS353 (setting [5]), 0.39 µg/mL (≈ 0.549 µM); against Strept. pyogenes 1022, 50 µg/mL (≈ 70.4 µM). For the same molecule, the MIC with Staph. aureus 0119 is greater than 100 µg/mL; in test [2], no more than 0.05 µg/mL; with Staph. aureus Smith (setting [6]), 1.56 µg/mL (≈ 2.2 µM); in test [3] it was 0.1 µg/mL (≈ 0.141 µM); in the test on Strept. pyogenes N.Y.5, 0.78 µg/mL (≈ 1.1 µM); against E. coli NIHJ JC-2, greater than 100 µg/mL. Further, the figures for the MIC (in test [4]; against Strept. agalactiae 1020; in the test with Staph. aureus 0127) were 0.1 µg/mL (≈ 0.141 µM), 0.1 µg/mL (≈ 0.141 µM) and greater than 100 µg/mL, respectively.
As for `CCC1OC(=O)CC(O)C(C)C(OC2OC(C)C(O)C(N(C)C)C2O)C(C)CC(C)C(=O)/C=C/C(C)=C/C1COC1OC(C)CC(=O)C1OC` (stereo not shown) [Compound 1, 4"-deoxy-3"-demethoxy-3"-oxo-19-deformyldesmycosin], the minimum inhibitory concentration (MIC) was 1.56 µg/mL (≈ 2.19 µM) in test [1]; greater than 100 µg/mL against Staph. aureus MS353 AO; 0.39 µg/mL (≈ 0.548 µM) in the test with Staph. aureus ATCC6538P; 0.39 µg/mL (≈ 0.548 µM) against Staph. aureus MS353C36; 0.39 µg/mL (≈ 0.548 µM) in the test with Staph. aureus MS353 (setting [5]); 50 µg/mL (≈ 70.2 µM) against Strept. pyogenes 1022. The MIC with Staph. aureus 0119 is greater than 100 µg/mL; in test [2] it was 0.1 µg/mL (≈ 0.14 µM); in the test on Staph. aureus Smith (setting [6]) it was 0.78 µg/mL (≈ 1.1 µM); in test [3], 0.1 µg/mL (≈ 0.14 µM); against Strept. pyogenes N.Y.5 it was 0.2 µg/mL (≈ 0.281 µM); against E. coli NIHJ JC-2 it was greater than 100 µg/mL. The MIC in test [4] is 0.2 µg/mL (≈ 0.281 µM); in the test with Staph. aureus 0126 (setting [7]), 1.56 µg/mL (≈ 2.19 µM); against Strept. agalactiae 1020, 0.39 µg/mL (≈ 0.548 µM); against Staph. aureus 0127, greater than 100 µg/mL.
On to `C=C1CC(C)OC(OCC2/C=C(C)/C=C/C(=O)C(C)CC(C)C(OC3OC(C)CC(N(C)C)C3O)C(C)C(O)CC(=O)OC2CC)C1OC` (stereo not shown) [Compound 4, 4',4"-di-deoxy-3"-demethoxy-3"-methylene-19-deformyldesmycosin], for which the MIC was 0.39 µg/mL (≈ 0.562 µM) in [1]; greater than 100 µg/mL against Staph. aureus MS353 AO; 0.1 µg/mL (≈ 0.144 µM) in the test on Staph. aureus ATCC6538P; 0.2 µg/mL (≈ 0.288 µM) with Staph. aureus MS353C36; 0.2 µg/mL (≈ 0.288 µM) in the test on Staph. aureus MS353 (setting [5]); 3.13 µg/mL (≈ 4.51 µM) in the test with Strept. pyogenes 1022. In addition, the minimal inhibitory concentration (MIC) is greater than 100 µg/mL against Staph. aureus 0119; no more than 0.05 µg/mL in test [2]; 0.39 µg/mL (≈ 0.562 µM) in the test on Staph. aureus Smith (setting [6]); 0.1 µg/mL (≈ 0.144 µM) in test [3]; 0.1 µg/mL (≈ 0.144 µM) in the test on Strept. pyogenes N.Y.5; greater than 100 µg/mL against E. coli NIHJ JC-2. In addition, the MIC is no more than 0.05 µg/mL in test [4], 0.78 µg/mL (≈ 1.12 µM) in the test on Staph. aureus 0126 (setting [7]), no more than 0.05 µg/mL in the test on Strept. agalactiae 1020 and 100 µg/mL (≈ 144 µM) in the test on Staph. aureus 0127.
With `C=C1CC(C)OC(OCC2/C=C(C)/C=C/C(=O)C(C)CC(C)C(OC3OC(C)C(O)C(N(C)C)C3O)C(C)C(OC(=O)CC)CC(=O)OC2CC)C1OC` (stereo not shown) [Compound 5, 4"-deoxy-3"-demethoxy-3"-methylene-3-0-propionyl-19-deformyldesmycosin], the MIC in [1] is 1.56 µg/mL (≈ 2.04 µM); against Staph. aureus MS353 AO it was greater than 100 µg/mL; against Staph. aureus ATCC6538P it was 0.39 µg/mL (≈ 0.509 µM); against Staph. aureus MS353C36, 0.78 µg/mL (≈ 1.02 µM); in the test on Staph. aureus MS353 (setting [5]), 0.78 µg/mL (≈ 1.02 µM); in the test on Strept. pyogenes 1022 it was 100 µg/mL (≈ 131 µM). The MIC in the test with Staph. aureus 0119 is greater than 100 µg/mL; in [2], 0.2 µg/mL (≈ 0.261 µM); with Staph. aureus Smith (setting [6]) it was 0.78 µg/mL (≈ 1.02 µM); in test [3] it was no more than 0.05 µg/mL; with Strept. pyogenes N.Y.5, 0.78 µg/mL (≈ 1.02 µM); with E. coli NIHJ JC-2 it was greater than 100 µg/mL. Besides, the figures for the MIC (in [4]; in the test with Strept. agalactiae 1020; against Staph. aureus 0127) were 0.2 µg/mL (≈ 0.261 µM), 0.2 µg/mL (≈ 0.261 µM) and greater than 100 µg/mL, respectively.
As for `CCC1OC(=O)CC(O)C(C)C(OC2OC(C)CC(N(C)C)C2O)C(C)CC(C)C(=O)/C=C/C(C)=C/C1COC1OC(C)C=C(OC)C1OC` (stereo not shown) [Compound 2, 4',4"-dideoxy-3",4"-di-dehydro-19-deformyldesmycosin], the MIC was 1.56 µg/mL (≈ 2.2 µM) in test [1]; greater than 100 µg/mL against Staph. aureus MS353 AO; 0.2 µg/mL (≈ 0.282 µM) with Staph. aureus ATCC6538P; 0.2 µg/mL (≈ 0.282 µM) in the test with Staph. aureus MS353C36; 0.2 µg/mL (≈ 0.282 µM) in the test with Staph. aureus MS353 (setting [5]); greater than 100 µg/mL against Strept. pyogenes 1022. The MIC is greater than 100 µg/mL in the test on Staph. aureus 0119; 0.2 µg/mL (≈ 0.282 µM) in [2]; 0.39 µg/mL (≈ 0.549 µM) with Staph. aureus Smith (setting [6]); 0.1 µg/mL (≈ 0.141 µM) in test [3]; 0.2 µg/mL (≈ 0.282 µM) against Strept. pyogenes N.Y.5; greater than 100 µg/mL against E. coli NIHJ JC-2. In addition, the MIC in test [4] is no more than 0.05 µg/mL; in the test with Staph. aureus 0126 (setting [7]), 6.25 µg/mL (≈ 8.8 µM); with Strept. agalactiae 1020, 0.39 µg/mL (≈ 0.549 µM); against Staph. aureus 0127, greater than 100 µg/mL.
Turning to `C=C1CC(C)OC(OCC2/C=C(C)/C=C/C(=O)C(C)CC(C)C(OC3OC(C)C(O)C(N(C)C)C3O)C(C)C(OC(=O)N(C)C)CC(=O)OC2CC)C1OC` (stereo not shown) [Compound 6, 4"-deoxy-3"-demethoxy-3"-methylene-3-0-dimethylcarbamoyl-19-deformyldesmycosin], the minimum inhibitory concentration (MIC) was 0.78 µg/mL (≈ 0.999 µM) in test [1]; greater than 100 µg/mL in the test with Staph. aureus MS353 AO; 0.39 µg/mL (≈ 0.499 µM) against Staph. aureus ATCC6538P; 0.78 µg/mL (≈ 0.999 µM) against Staph. aureus MS353C36; 0.39 µg/mL (≈ 0.499 µM) with Staph. aureus MS353 (setting [5]); greater than 100 µg/mL in the test on Strept. pyogenes 1022. Moreover, the minimal inhibitory concentration (MIC) is greater than 100 µg/mL with Staph. aureus 0119; 0.1 µg/mL (≈ 0.128 µM) in test [2]; 1.56 µg/mL (≈ 2 µM) with Staph. aureus Smith (setting [6]); 0.1 µg/mL (≈ 0.128 µM) in [3]; 0.78 µg/mL (≈ 0.999 µM) against Strept. pyogenes N.Y.5; greater than 100 µg/mL with E. coli NIHJ JC-2. Further, the figures for the MIC (in test [4]; with Strept. agalactiae 1020; with Staph. aureus 0127) were 0.2 µg/mL (≈ 0.256 µM), 0.2 µg/mL (≈ 0.256 µM) and greater than 100 µg/mL, respectively.

As usually defined, the MIC is the least concentration at which growth counts as inhibited.
